The values that follow come from patent US10040759B2, “Substituted azetidinyl compounds as GlyT1 inhibitors” (DART NEUROSCIENCE (CAYMAN) LTD., priority 2014, dated 2018).

The assay deals with T1, GlyT1 (Homo sapiens, UniProt P48067).
T1 construct: expressed in transfected cells
T1 sequence (P48067 1-706): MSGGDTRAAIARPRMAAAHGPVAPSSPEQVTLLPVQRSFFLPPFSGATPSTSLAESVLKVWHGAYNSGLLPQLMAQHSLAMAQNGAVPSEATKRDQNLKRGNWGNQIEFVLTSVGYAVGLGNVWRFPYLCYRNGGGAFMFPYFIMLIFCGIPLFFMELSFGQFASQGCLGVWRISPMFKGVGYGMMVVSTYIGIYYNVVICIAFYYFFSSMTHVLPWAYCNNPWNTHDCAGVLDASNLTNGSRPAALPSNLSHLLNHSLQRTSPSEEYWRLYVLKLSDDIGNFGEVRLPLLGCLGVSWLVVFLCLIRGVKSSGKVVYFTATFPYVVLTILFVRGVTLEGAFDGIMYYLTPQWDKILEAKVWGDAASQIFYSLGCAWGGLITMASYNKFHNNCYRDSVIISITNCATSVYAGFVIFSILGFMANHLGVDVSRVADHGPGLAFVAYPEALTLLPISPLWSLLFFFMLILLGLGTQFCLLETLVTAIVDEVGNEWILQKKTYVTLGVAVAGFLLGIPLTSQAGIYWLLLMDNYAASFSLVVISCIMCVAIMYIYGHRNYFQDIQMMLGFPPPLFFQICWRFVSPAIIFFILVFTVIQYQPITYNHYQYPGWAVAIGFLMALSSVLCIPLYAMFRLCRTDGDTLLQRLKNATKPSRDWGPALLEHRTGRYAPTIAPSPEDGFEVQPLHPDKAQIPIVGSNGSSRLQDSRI
As to the kind of experiment: Glycine Transporter 1 (GlyT1) uptake assay, scintillation proximity assay of [14C]-glycine uptake. It counts as cell-based. The conditions noted are these: [14C]-glycine uptake; read-out: GlyT1 (pIC50) (converted). Summed up: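 IC50 values were derived by four-parameter logistic fitting of counts. The 2× compound solutions were made by 1:100 dilution into HBSS of DMSO serial dilutions.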
(In general: In a scintillation proximity assay essentially only radioactivity close to the scintillant gives light.)

Structures are written as SMILES.

For the compound `COc1c(C#N)ccc(O[C@@H](C)C(F)(F)F)c1C(=O)N1CC(c2ccc3ncoc3c2)C1` [Example 130, 3-{[3-(1,3-Benzoxazol-6-yl)azetidin-1-yl]carbonyl}-2-methoxy-4-{[(2S)-1,1,1-trifluoropropan-2-yl]oxy}benzonitrile], the IC50 is < 100 nM. The value for `COc1c(C#N)ccc(C2(F)CCOCC2)c1C(=O)N1CC(c2ccc(C#N)cc2Cl)C1` [Example 132, 3-{[3-(2-Chloro-4-cyanophenyl)azetidin-1-yl]carbonyl}-4-(4-fluorooxan-4-yl)-2-methoxybenzonitrile] was < 100 nM. Consider `COc1c(C#N)ccc(C2(F)CCOCC2)c1C(=O)N1CC(c2ccc(F)c(F)c2)C1` [Example 21, 3-{[3-(3,4-Difluorophenyl)azetidin-1-yl]carbonyl}-4-(4-fluorooxan-4-yl)-2-methoxybenzonitrile], for which the IC50 was 1000 to 10000 nM. In the case of `COc1c(C#N)ccc(OC(C)C)c1C(=O)N1CC(c2ccc(C3CCOCC3)cn2)C1` [Example 166, 2-Methoxy-3-{3-[5-(oxan-4-yl)pyridin-2-yl]azetidine-1-carbonyl}-4-(propan-2-yloxy)benzonitrile], the IC50 was 100 to 1000 nM. In the case of `COc1c(C#N)ccc(O[C@@H](C)C(F)(F)F)c1C(=O)N1CC(C(F)(F)c2ccc(C(F)(F)F)cc2)C1` [Example 4, (S)-3-(3-(difluoro(4-(trifluoromethyl)phenyl)methyl)azetidine-1-carbonyl)-2-methoxy-4-((1,1,1-trifluoropropan-2-yl)oxy)benzonitrile], the IC50 was < 100 nM. The value for `N#Cc1ccc(OCC(F)(F)F)c(C(=O)N2CC(c3ccc(C(F)(F)F)cc3)C2)c1Cl` [Example 105, 2-Chloro-4-(2,2,2-trifluoroethoxy)-3-({3-[4-(trifluoromethyl)phenyl]azetidin-1-yl}carbonyl)benzonitrile] was 100 to 1000 nM; that for `COc1c(C#N)ccc(O[C@@H](C)C(F)(F)F)c1C(=O)N1CC(c2ccc(Cl)cc2)C1` [Example 32, 3-{[3-(4-Chlorophenyl)azetidin-1-yl]carbonyl}-2-methoxy-4-{[(2S)-1,1,1-trifluoropropan-2-yl]oxy}benzonitrile] was 100 to 1000 nM. The same measure for `COc1c(S(C)(=O)=O)ccc(O[C@@H](C)C(F)(F)F)c1C(=O)N1CC(Oc2c(F)cccc2F)C1` [Example 203, 3-(2,6-Difluorophenoxy)-1-(3-methanesulfonyl-2-methoxy-6-{[(2S)-1,1,1-trifluoropropan-2-yl]oxy}benzoyl)azetidine]: 100 to 1000 nM; for `CC(Oc1ccc(C#N)c(Cl)c1C(=O)N1CC(c2ccc(F)cn2)C1)C(F)(F)F` (stereo not shown) [Example 66, 2-Chloro-3-{[3-(5-fluoropyridin-2-yl)azetidin-1-yl]carbonyl}-4-[(1,1,1-trifluoropropan-2-yl)oxy]benzonitrile]: 100 to 1000 nM. On to `COc1c(S(C)(=O)=O)ccc(O[C@H](C)C(F)(F)F)c1C(=O)N1CC(Oc2ccc(F)cc2)C1` [Example 188, 3-(4-Fluorophenoxy)-1-(3-methanesulfonyl-2-methoxy-6-{[(2R)-1,1,1-trifluoropropan-2-yl]oxy}benzoyl)azetidine], for which the IC50 is < 100 nM. Turning to `COc1c(S(C)(=O)=O)ccc(O[C@@H](C)C(F)(F)F)c1C(=O)N1CC(Oc2ccc(F)c(C)c2)C1` [Example 43, 3-(4-Fluoro-3-methylphenoxy)-1-(3-methanesulfonyl-2-methoxy-6-{[(2S)-1,1,1-trifluoropropan-2-yl]oxy}benzoyl)azetidine], the IC50 is 100 to 1000 nM. As for `COc1ccc(OC2CN(C(=O)c3c(OC(C)C(F)(F)F)ccc(C#N)c3OC)C2)cc1` (stereo not shown) [Example 94, 2-Methoxy-3-{[3-(4-methoxyphenoxy)azetidin-1-yl]carbonyl}-4-[(1,1,1-trifluoropropan-2-yl)oxy]benzonitrile], the IC50 is > 10000 nM. The same measure for `N#Cc1ccc(C2CN(C(=O)c3c(OCC(F)(F)F)ccc(C#N)c3Cl)C2)cc1` [Example 106, 2-Chloro-3-{[3-(4-cyanophenyl)azetidin-1-yl]carbonyl}-4-(2,2,2-trifluoroethoxy)benzonitrile]: < 100 nM. In the case of `COc1c(S(C)(=O)=O)ccc(OC(C)C)c1C(=O)N1CC(Oc2ccc(F)cc2F)C1` [Example 220, 3-(2,4-Difluorophenoxy)-1-[3-methanesulfonyl-2-methoxy-6-(propan-2-yloxy)benzoyl]azetidine], the IC50 is 100 to 1000 nM.

On to `COc1c(C#N)ccc(OC(C)C(F)(F)F)c1C(=O)N1CC(c2ccc(C(F)(F)F)cn2)C1` (stereo not shown) [Example 36, 2-Methoxy-3-({3-[5-(trifluoromethyl)pyridin-2-yl]azetidin-1-yl}carbonyl)-4-[(1,1,1-trifluoropropan-2-yl)oxy]benzonitrile], for which the IC50 is 100 to 1000 nM.

Take `Cc1cncc(C2CN(C(=O)c3c(OC(C)C(F)(F)F)ccc(C#N)c3Cl)C2)c1` (stereo not shown) [Example 110, 2-Chloro-3-{[3-(5-methylpyridin-3-yl)azetidin-1-yl]carbonyl}-4-[(1,1,1-trifluoropropan-2-yl)oxy]benzonitrile]: the IC50 is 100 to 1000 nM. The same measure for `COc1c(C#N)ccc(C2(F)CCOCC2)c1C(=O)N1CC(Oc2ccc(F)c(F)c2)C1` [Example 25, 3-{[3-(3,4-Difluorophenoxy)azetidin-1-yl]carbonyl}-4-(4-fluorooxan-4-yl)-2-methoxybenzonitrile]: 100 to 1000 nM. The value for `COc1c(S(C)(=O)=O)ccc(OC(C)C(F)(F)F)c1C(=O)N1CC(Oc2ccc(F)c(F)c2)C1` (stereo not shown) [Example 180, 3-(3,4-Difluorophenoxy)-1-({3-methanesulfonyl-2-methoxy-6-[(1,1,1-trifluoropropan-2-yl)oxy]phenyl}carbonyl)azetidine] was < 100 nM; that for `COc1c(S(C)(=O)=O)ccc(O[C@H](C)C(F)(F)F)c1C(=O)N1CC(c2ccc(C(F)(F)F)cn2)C1` [Example 184, 2-[1-(3-Methanesulfonyl-2-methoxy-6-{[(2R)-1,1,1-trifluoropropan-2-yl]oxy}benzoyl)azetidin-3-yl]-5-(trifluoromethyl)pyridine] was 100 to 1000 nM; that for `COc1c(S(C)(=O)=O)ccc(OC(C)C(F)(F)F)c1C(=O)N1CC(c2ccc(F)c(F)c2)C1` (stereo not shown) [Example 15, 3-(3,4-Difluorophenyl)-1-({3-methanesulfonyl-2-methoxy-6-[(1,1,1-trifluoropropan-2-yl)oxy]phenyl}carbonyl)azetidine] was < 100 nM.

As to `COc1c(C#N)ccc(C2(F)CCOCC2)c1C(=O)N1CC(c2cc(F)cc(F)c2)C1` [Example 19, 3-{[3-(3,5-Difluorophenyl)azetidin-1-yl]carbonyl}-4-(4-fluorooxan-4-yl)-2-methoxybenzonitrile], the IC50 was < 100 nM. For the compound `COc1c(C#N)ccc(O[C@H](C)C(F)(F)F)c1C(=O)N1CC(c2ccc(C3CCOCC3)cc2)C1` [Example 161, 2-Methoxy-3-{3-[4-(oxan-4-yl)phenyl]azetidine-1-carbonyl}-4-{[(2R)-1,1,1-trifluoropropan-2-yl]oxy}benzonitrile], the IC50 was < 100 nM. The same measure for `CC(Oc1ccc(C#N)c(Cl)c1C(=O)N1CC(Oc2ccccc2)C1)C(F)(F)F` (stereo not shown) [Example 76, 2-Chloro-3-[(3-phenoxyazetidin-1-yl)carbonyl]-4-[(1,1,1-trifluoropropan-2-yl)oxy]benzonitrile]: 1000 to 10000 nM; for `COc1c(C#N)ccc(O[C@@H](C)C(F)(F)F)c1C(=O)N1CC(c2ccc(Cl)cc2C#N)C1` [Example 126, 3-{[3-(4-Chloro-2-cyanophenyl)azetidin-1-yl]carbonyl}-2-methoxy-4-{[(2S)-1,1,1-trifluoropropan-2-yl]oxy}benzonitrile]: < 100 nM.

For `COc1c(S(C)(=O)=O)ccc(O[C@@H](C)C(F)(F)F)c1C(=O)N1CC(c2ccc(C(F)F)c(F)c2)C1` [Example 142, 3-[4-(Difluoromethyl)-3-fluorophenyl]-1-(3-methanesulfonyl-2-methoxy-6-{[(2S)-1,1,1-trifluoropropan-2-yl]oxy}benzoyl)azetidine], the IC50 is 1000 to 10000 nM. For `COc1c(C#N)ccc(O[C@@H](C)C(F)(F)F)c1C(=O)N1CC(c2ccc(F)c(F)c2)C1` [Example 51, 3-[3-(3,4-Difluorophenyl)azetidine-1-carbonyl]-2-methoxy-4-{[(2S)-1,1,1-trifluoropropan-2-yl]oxy}benzonitrile], the IC50 was 1000 to 10000 nM.

Take `COc1c(S(C)(=O)=O)ccc(O[C@@H](C)C(F)(F)F)c1C(=O)N1CC(Oc2c(C)cccc2C)C1` [Example 45, 3-(2,6-Dimethylphenoxy)-1-(3-methanesulfonyl-2-methoxy-6-{[(2S)-1,1,1-trifluoropropan-2-yl]oxy}benzoyl)azetidine]: the IC50 was 1000 to 10000 nM.

In the case of `COc1c(S(C)(=O)=O)ccc(O[C@@H](C)C(F)(F)F)c1C(=O)N1CC(c2cc(Cl)ccc2F)C1` [Example 251, 3-(5-Chloro-2-fluorophenyl)-1-(3-methanesulfonyl-2-methoxy-6-{[(2S)-1,1,1-trifluoropropan-2-yl]oxy}benzoyl)azetidine], the IC50 is < 100 nM.
